According to ChEMBL document CHEMBL1130885, “A potent and selective inhibition of parainfluenza 1 (Sendai) virus by new 6-oxiranyl-, 6-methyloxiranyluracils, and 4(3H)-pyrimidinone derivatives” (1998):

Legend:
MDCK [1] = assay: Antiviral activity against parainfluenza 1 (sendai) virus was determined in madin Darby canine kidney (MDCK)i cells; type: functional, Canis lupus familiaris; settings: read-out: ED50 (the source's name)
MDCK [2] = assay: Minimum toxic concentration required to cause microscopically detectable alteration of confluent madin Darby canine kidney (MDCK)cell morphology; type: functional, Canis lupus familiaris
Mus musculus = species: Mus musculus; assay: Inhibitory concentration required to inhibit proliferation in mouse myeloma cells; type: functional

| Structure (SMILES) | EC50 (MDCK [1]; Canis lupus familiaris, MDCK) [µM] | MTC (MDCK [2]) [µM] | CC50 (Mus musculus; Mus musculus) [µM] | EC50 (MDCK [1]) [µM] | CC50 (Mus musculus) [µM] |
| --- | --- | --- | --- | --- | --- |
| C[C@H]1O[C@@]1(C)Cc1cc(=O)n(C)c(=O)n1C | > 2 | >2 | 89 | – | – |
| C[C@@H]1O[C@@]1(C)Cc1cc(=O)n(C)c(=O)n1C | > 2 | >2 | 89 | – | – |
| Cn1c(CC2(C)CO2)cc(=O)n(C)c1=O (configuration not stated) | 0.24 | 0.48 | 4 | – | – |
| Cn1c(CC2(C(C)(C)C)CO2)cc(=O)n(C)c1=O (configuration not stated) | 0.59 | >0.79 | 7.9 | – | – |
| Cn1c(CC2(c3ccccc3)CO2)cc(=O)n(C)c1=O (configuration not stated) | 0.18 | 0.37 | 3.7 | – | – |
| CCCOc1nc(CC23CCCCC2O3)cc(=O)n1C (configuration not stated) | 176 | >352 | > 352 | – | – |
| Cn1c(C2OC2(C)c2ccccc2)cc(=O)n(C)c1=O (configuration not stated) | 0.47 | >0.81 | 7.3 | – | – |
| CCCOc1nc(CC2(c3ccccc3)CO2)cc(=O)n1C (configuration not stated) | 16.6 | 330 | > 30 | – | – |
| Cn1c(CC23CCCC2O3)cc(=O)n(C)c1=O (configuration not stated) | 0.42 | >0.84 | 8.4 | – | – |
| Cn1c(OC2CCCCC2)nc(CC2(c3ccccc3)CO2)cc1=O (configuration not stated) | 147 | 294 | > 294 | – | – |
| Cn1c(CC23CCCCC2O3)cc(=O)n(C)c1=O (configuration not stated) | > 2 | >2 | 40 | – | – |
| CC1OC1(C)Cc1cc(=O)n(C)c(OC2CCCCC2)n1 (configuration not stated) | 171 | 342 | > 342 | – | – |
| Cn1c(C2OC2c2ccccc2)cc(=O)n(C)c1=O (stereo in doubt; 6b) | – | >0.8 | – | 0.38 | 7.7 |
| Cn1c(C2OC2c2ccccc2)cc(=O)n(C)c1=O (stereo in doubt; 6c) | – | 380 | – | 193 | > 380 |
